Assay results as given in paper PMC9490060, “Synthesis and evaluation of anticancer activity of quillaic acid derivatives: A cell cycle arrest and apoptosis inducer through NF-κB and MAPK pathways” (Frontiers in Chemistry, 2022).

Experiments:
[1] = system: MCF-7 (human breast cancer cell line); experiment: MTT anti-proliferative assay, MCF-7; type: cell-based; conditions: means ± SD, n = 3
In short: (§1)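 Cells seeded at 1 × 10^4–1.2 × 10^4 per well were allowed to adhere 24 h, then exposed 48 h at 37 °C, 5% CO2 to compound at 1.25, 2.5, 5 and 10 μM (DMSO ≤0.1%). MCF-7 and HepG2 were grown in DMEM, HCT116 and BEL7402 in RPMI 1640, each with 10% FBS. MTT (final 2 mg/ml) was added for 4 h; formazan was dissolved in DMSO and read at 492 nm.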

[2] = system: SW620 (human colorectal cancer cell line); experiment: MTT anti-proliferative assay, SW620; type: cell-based; conditions: means ± SD, n = 3
ERK = experiment: Western blot, MAPK signaling pathway: ERK; type: cell-based, human; conditions: HCT116, 10 μM, 24 h
Text: (§2) Extracellular signal-regulated kinases are the most closely related MAPK. MAPK, a family of serine/threonine protein kinases, is also an important transmitter of signaling from the cell surface to the nucleus, and it is involved in the regulation of many physiological processes, including apoptosis ([Bian et al., 2021]). The MAPK pathway has been implicated in regulating tumor angiogenesis, proliferation, metastasis and invasion ([Ko et al., 2017]). MAPK family is mainly composed of ERK, p38 and JNK subfamily.
(§3) FIGURE 9 Effect of compound E on […] in HCT116 cells. Cells were pretreated with the various concentrations of compound E (2.5, 5 and 10 μM) for 24 h. The expression of phospho-ERK, ERK, phospho-JNK, JNK, phospho-p38, p38 were analyzed by Western blot. ***p < 0.001, **p < 0.01, *p < 0.05 vs. control group. The error bars represent the mean ± SD for three independent experiments.
(§4) HCT116 cells were cultured with different concentrations of compound E for 24 h. Then, the floating cells were collected and washed twice with ice-cold PBS. Add cold RIPA buffer. After the cells were lysed on ice for 20 min, the lysate was centrifuged at 12,000 rpm for 15 min at 4°C. The BCA method determines the protein concentration. […] The protein is detected by electrochemiluminescence (Bio-Rad, CA, United State).

[3] = system: BEL7402 (human hepatocellular carcinoma cell line); experiment: MTT anti-proliferative assay, BEL7402; type: cell-based; conditions: means ± SD, n = 3
In short: as §1

p38 = experiment: Western blot, MAPK signaling pathway: p38; type: cell-based, human; conditions: HCT116, 10 μM, 24 h
Text: as §2, §3, §4

JNK = experiment: Western blot, MAPK signaling pathway: JNK; type: cell-based, human; conditions: HCT116, 10 μM, 24 h
Text: as §2, §3, §4

[4] = Stability under pharmacological experimental conditions (RPMI 1640 medium, liquid phase detection); type: physicochemical
Protocol: Experimental method: Samples A-E were prepared and detected by liquid phase. Details are as follows.
A: The purity of compound E was detected by liquid phase, and the peak time of compound E was judged.
B: Liquid detection RPMI 1640 medium
C: Compound E was dissolved in the RPMI 1640 medium and detected by liquid phase.
D: Compound E was dissolved in the RPMI 1640 medium and placed in the incubator for 24 hours before detection by liquid phase.
E: Compound E was dissolved in the RPMI 1640 medium and placed in the incubator for 48 hours before detection by liquid phase.

NF-κB p65 = experiment: Western blot, NF-κB signaling pathway: NF-κB p65; type: cell-based, human; conditions: HCT116, 2.5, 5 and 10 μM, 24 h
Text: The NF-κB pathway plays an important role in a variety of cellular functions, including cell growth, apoptosis, and tumorigenesis ([Hwang et al., 2012]). Interfering with NF-κB signaling can inhibit tumor cell proliferation and metastasis ([Yenmis et al., 2021]). Therefore, NF-κB inhibitors are considered as potential anticancer drugs ([Wang et al., 2017]).
as §3, with “8” for “9”, “phospho-NF-κB p65, NF-κB p65, phospho-IκB, IκB” for “phospho-ERK, ERK, phospho-JNK, JNK, phospho-p38, p38”
as §4, with “concentration. Separated by SDS/PAGE electrophoresis and transferred to a nitrocellulose filter membrane for Western blot analysis. The membrane was blocked with PBS containing 5% skim milk at room temperature for 2 h.” for “concentration.”

- IC50 values MCF-7 ([1]; 48 h incubation): strong activity
- IC50 ([1]; Homo sapiens, MCF7, 48 h incubation): 7.59 ± 1.78 µM
- IC50 values SW620 ([2]; 48 h incubation): strong activity
- IC50 ([2]; Homo sapiens, SW-620, 48 h incubation): 4.69 ± 1.1 µM
- IC50 values BEL7402 ([3]; 48 h incubation): strong activity
- IC50 ([3]; Homo sapiens, Bel-7402, 48 h incubation): 6.89 ± 1.69 µM
- melting point: 196 to 198 °C
- content of compound E (HPLC peak) ([4]; after 24 hours in incubator): 20.495%
- content of compound E (HPLC peak) ([4]; after 48 hours in incubator): 19.557%
- content of compound E (HPLC peak) ([4]; check directly/0 hours): 20.461%
- stability under pharmacological experimental conditions ([4]; incubator, up to 48 hours): high stability
SMILES: CC1(C)CC[C@]2(C(=O)OCCn3nnnc3-c3ccccc3)[C@H](O)C[C@]3(C)C(=CC[C@@H]4[C@@]5(C)CC[C@H](O)[C@@](C)(C=O)[C@@H]5CC[C@]43C)[C@@H]2C1 [Compound E, 2-(5-phenyl-1H-tetrazol-1-yl)ethyl (4aR,5R,6aS,6bR,8aR,9S,10S,12aR,12bR,14bS)-9-formyl-5,10-dihydroxy-2,2,6a,6b,9,12a-hexamethyl-1,3,4,5,6,6a,6b,7,8,8a,9,10,11,12,12a,12b,13,14b-octadecahydropicene-4a (2H)-carboxylate]
- phosphorylation level of ERK (ERK): down-regulated
- phosphorylation level of p38 (p38): down-regulated
- phosphorylation level of JNK (JNK): down-regulated
- effect on NF-κB p65 (NF-κB p65): no inhibitory effect
